Here are results for 1 compound from PMC10906037, “Highly Enantioselective Catalysis by Enzyme Encapsulated in Metal Azolate Frameworks with Micelle-Controlled Pore Sizes” (ACS Central Science, 2024).

The experiment concerns the target T1, lipase CAL-B (Moesziomyces antarcticus, UniProt P41365).
T1 sequence (P41365 26-342): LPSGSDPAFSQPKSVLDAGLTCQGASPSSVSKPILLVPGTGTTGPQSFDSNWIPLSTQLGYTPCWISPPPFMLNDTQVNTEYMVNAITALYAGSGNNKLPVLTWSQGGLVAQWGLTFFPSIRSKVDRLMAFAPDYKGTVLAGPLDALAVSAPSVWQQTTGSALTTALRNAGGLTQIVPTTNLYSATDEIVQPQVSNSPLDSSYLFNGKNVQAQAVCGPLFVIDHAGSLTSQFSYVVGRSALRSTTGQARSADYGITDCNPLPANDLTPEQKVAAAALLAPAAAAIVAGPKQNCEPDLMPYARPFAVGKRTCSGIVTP
Nature of the experiment: kinetic resolution, yield. Type of experiment: biochemical. The following applies: free CAL-B; substrate not given.

On to `CC(=O)O[C@H](C)c1cccc2ccccc12` [compound 8, product 8], for which the “kinetic resolution, yield” value is on record as “it resulted in a notably lower yield in comparison to free CAL-B”.
